From paper PMC11148045, “Structural basis for recognition of 26RFa by the pyroglutamylated RFamide peptide receptor” (Cell Discovery, 2024)
No end group written: not given here.

Experiments:
Assay type in all cases: cell-based
QRFPR (WT) = target: T1, QRFPR (WT) (Homo sapiens, UniProt Q96P65); experiment: 26RFa-induced calcium mobilization, wild-type receptor; settings: HEK293, Fluo-4 AM, ex 485/em 525 nm, mean ± S.E.M., at least three independent experiments
T1 construct: expressed in transfected cells; host or cells: HEK293, transient transfection by electroporation
T1 sequence (Q96P65 whole entry): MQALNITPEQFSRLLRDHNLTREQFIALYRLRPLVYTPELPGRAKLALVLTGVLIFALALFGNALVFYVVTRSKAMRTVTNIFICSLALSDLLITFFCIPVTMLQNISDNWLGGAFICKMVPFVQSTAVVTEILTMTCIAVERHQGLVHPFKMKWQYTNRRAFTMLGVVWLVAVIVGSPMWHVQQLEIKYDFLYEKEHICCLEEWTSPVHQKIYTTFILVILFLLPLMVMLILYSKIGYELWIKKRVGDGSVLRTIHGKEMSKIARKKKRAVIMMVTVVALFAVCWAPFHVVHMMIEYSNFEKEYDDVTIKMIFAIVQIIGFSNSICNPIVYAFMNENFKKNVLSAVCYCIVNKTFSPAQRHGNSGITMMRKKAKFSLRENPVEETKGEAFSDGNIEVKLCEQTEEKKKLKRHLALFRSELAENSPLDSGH
Protocol: (§1) The gene encoding the WT QRFPR, PrPRR, KISS1R, NPFF1R, or NPFF2R was subcloned into the pcDNA3.0 vector with the addition of an N-terminal HA tag. All of the mutations used for functional studies were generated by QuickChange PCR and verified by DNA sequencing.
(§2) HEK293 cells were obtained from ATCC (Manassas, VA, USA) and cultured in DMEM supplemented with 10% (v/v) FBS, 100 mg/L penicillin, and 100 mg/L streptomycin in 5% CO2 at 37 °C. For transient transfection, ~2.5 × 10^6 cells were mixed with 2 µg plasmids in 200 µL transfection buffer, and electroporation was carried out with a Scientz-2C electroporation apparatus (Scientz Biotech, Ningbo, China). The experiments were carried out 24 h after transfection.
For QRFPR, PrRPR, and KISS1R, HEK293 cells transfected with WT receptor or its mutants were seeded at a density of 4 × 10^4 per well into 96-well culture plates and incubated for 24 h at 37 °C in 5% CO2. […] After washing, cells were added with 50 μL HBSS and incubated at room temperature for 10 min, then 25 μL agonist buffer was dispensed into the well using a FlexStation III microplate reader (Molecular Devices), and intracellular calcium change was recorded at an excitation wavelength of 485 nm and an emission wavelength of 525 nm. EC50 and Emax values for each curve were calculated by Prism 8.0 software (GraphPad Software).

QRFPR mutants [1] = target: T2, QRFPR mutants (Homo sapiens, UniProt Q96P65); experiment: 26RFa-induced calcium mobilization, receptor mutants
T2 construct: expressed in transfected cells; host or cells: HEK293, transient transfection by electroporation
Protocol: as §1, §2
(§3) For QRFPR, PrRPR, and KISS1R, HEK293 cells transfected with WT receptor or its mutants were seeded at a density of 4 × 10^4 per well into 96-well culture plates and incubated for 24 h at 37 °C in 5% CO2. For NPFF1R and NPFF2R, plasmids were transfected into HEK293 cells stably expressing Gα16. On the next day, cells were incubated with 2 μmol/L Fluo-4 AM in HBSS supplemented with 5.6 mmol/L D-glucose and 250 μmol/L sulfinpyrazone at 37 °C for 45 min. After washing, cells were added with 50 μL HBSS and incubated at room temperature for 10 min, then 25 μL agonist buffer was dispensed into the well using a FlexStation III microplate reader (Molecular Devices), and intracellular calcium change was recorded at an excitation wavelength of 485 nm and an emission wavelength of 525 nm. EC50 and Emax values for each curve were calculated by Prism 8.0 software (GraphPad Software).
T2 sequence (Q96P65 39-431, stated change not applied): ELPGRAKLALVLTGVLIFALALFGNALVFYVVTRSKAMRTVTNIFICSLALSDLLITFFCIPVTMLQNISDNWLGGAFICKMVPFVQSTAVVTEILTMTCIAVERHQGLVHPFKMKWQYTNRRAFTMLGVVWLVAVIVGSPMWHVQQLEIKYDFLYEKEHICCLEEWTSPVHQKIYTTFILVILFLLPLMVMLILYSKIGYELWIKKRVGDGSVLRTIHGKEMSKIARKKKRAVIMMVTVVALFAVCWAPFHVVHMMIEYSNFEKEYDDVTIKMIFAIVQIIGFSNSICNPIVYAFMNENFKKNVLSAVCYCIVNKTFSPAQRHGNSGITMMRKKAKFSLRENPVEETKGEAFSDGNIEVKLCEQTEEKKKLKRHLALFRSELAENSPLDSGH

QRFPR mutants [2] = target: T3, QRFPR mutants (Homo sapiens, UniProt Q96P65); experiment: as above; settings: HEK293, QRFPR Δ1-18; HEK293, Fluo-4; mean ± S.E.M., n ≥ 3
T3 construct: expressed in transfected cells; host or cells: HEK293, transient transfection by electroporation
Protocol: as §1, §2, §3
T3 sequence (Q96P65 19-431, stated change not applied): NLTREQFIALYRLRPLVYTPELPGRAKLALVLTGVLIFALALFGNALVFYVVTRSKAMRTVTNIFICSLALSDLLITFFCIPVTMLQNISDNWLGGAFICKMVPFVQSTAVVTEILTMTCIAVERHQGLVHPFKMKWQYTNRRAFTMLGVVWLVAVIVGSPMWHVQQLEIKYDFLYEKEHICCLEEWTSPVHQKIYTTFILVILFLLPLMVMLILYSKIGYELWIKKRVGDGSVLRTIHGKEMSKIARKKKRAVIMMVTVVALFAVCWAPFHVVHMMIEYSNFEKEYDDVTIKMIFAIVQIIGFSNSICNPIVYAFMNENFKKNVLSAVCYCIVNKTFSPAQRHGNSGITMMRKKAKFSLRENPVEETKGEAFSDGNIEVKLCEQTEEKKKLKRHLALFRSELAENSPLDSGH

QRFPR mutants [3] = target: T4, QRFPR mutants (Homo sapiens, UniProt Q96P65, C200A); experiment: as above; settings: HEK293, QRFPR C200^ECL2A; HEK293, Fluo-4; mean ± S.E.M., n ≥ 3
T4 construct: expressed in transfected cells; host or cells: HEK293, transient transfection by electroporation
T4 sequence (Q96P65 whole entry C200A): as the sequence (Q96P65 whole entry) above, with C200A counted along it
Protocol: as §1, §2, §3

QRFPR mutants [4] = target: T5, QRFPR mutants (Homo sapiens, UniProt Q96P65, C98A); experiment: as above; settings: HEK293, QRFPR C98^2.57A; HEK293, Fluo-4; mean ± S.E.M., n ≥ 3
T5 construct: expressed in transfected cells; host or cells: HEK293, transient transfection by electroporation
T5 sequence (Q96P65 whole entry C98A): as the sequence (Q96P65 whole entry) above, with C98A counted along it
Protocol: as §1, §2, §3

QRFPR mutants [5] = target: T6, QRFPR mutants (Homo sapiens, UniProt Q96P65, E203A); experiment: as above
T6 construct: expressed in transfected cells; host or cells: HEK293, transient transfection by electroporation
T6 sequence (Q96P65 whole entry E203A): as the sequence (Q96P65 whole entry) above, with E203A counted along it
Protocol: as §1, §2, §3

QRFPR mutants [6] = target: T7, QRFPR mutants (Homo sapiens, UniProt Q96P65, F289L); experiment: as above
T7 construct: expressed in transfected cells; host or cells: HEK293, transient transfection by electroporation
T7 sequence (Q96P65 whole entry F289L): as the sequence (Q96P65 whole entry) above, with F289L counted along it
Protocol: as §1, §2, §3

QRFPR mutants [7] = target: T8, QRFPR mutants (Homo sapiens, UniProt Q96P65, H293A); experiment: as above; settings: HEK293, QRFPR H293^6.55A; HEK293, Fluo-4; mean ± S.E.M., n ≥ 3
T8 construct: expressed in transfected cells; host or cells: HEK293, transient transfection by electroporation
T8 sequence (Q96P65 whole entry H293A): as the sequence (Q96P65 whole entry) above, with H293A counted along it
Protocol: as §1, §2, §3

QRFPR mutants [8] = target: T9, QRFPR mutants (Homo sapiens, UniProt Q96P65, L104A); experiment: as above; settings: HEK293, QRFPR L104^2.62A; HEK293, Fluo-4; mean ± S.E.M., n ≥ 3
T9 construct: expressed in transfected cells; host or cells: HEK293, transient transfection by electroporation
T9 sequence (Q96P65 whole entry L104A): as the sequence (Q96P65 whole entry) above, with L104A counted along it
Protocol: as §1, §2, §3

QRFPR mutants [9] = target: T10, QRFPR mutants (Homo sapiens, UniProt Q96P65, L222A); experiment: as above
T10 construct: expressed in transfected cells; host or cells: HEK293, transient transfection by electroporation
T10 sequence (Q96P65 whole entry L222A): as the sequence (Q96P65 whole entry) above, with L222A counted along it
Protocol: as §1, §2, §3

QRFPR mutants [10] = target: T11, QRFPR mutants (Homo sapiens, UniProt Q96P65, P122A); experiment: as above; settings: HEK293, QRFPR P122^3.29A; HEK293, Fluo-4; mean ± S.E.M., n ≥ 3
T11 construct: expressed in transfected cells; host or cells: HEK293, transient transfection by electroporation
T11 sequence (Q96P65 whole entry P122A): as the sequence (Q96P65 whole entry) above, with P122A counted along it
Protocol: as §1, §2, §3

QRFPR mutants [11] = target: T12, QRFPR mutants (Homo sapiens, UniProt Q96P65, Q105A); experiment: as above; settings: HEK293, QRFPR Q105^2.63A; HEK293, Fluo-4; mean ± S.E.M., n ≥ 3
T12 construct: expressed in transfected cells; host or cells: HEK293, transient transfection by electroporation
T12 sequence (Q96P65 whole entry Q105A): as the sequence (Q96P65 whole entry) above, with Q105A counted along it
Protocol: as §1, §2, §3

QRFPR mutants [12] = target: T13, QRFPR mutants (Homo sapiens, UniProt Q96P65, Q184A); experiment: as above; settings: HEK293, QRFPR Q184^4.64A; HEK293, Fluo-4; mean ± S.E.M., n ≥ 3
T13 construct: expressed in transfected cells; host or cells: HEK293, transient transfection by electroporation
T13 sequence (Q96P65 whole entry Q184A): as the sequence (Q96P65 whole entry) above, with Q184A counted along it
Protocol: as §1, §2, §3

QRFPR mutants [13] = target: T14, QRFPR mutants (Homo sapiens, UniProt Q96P65, S108A); experiment: as above; settings: HEK293, QRFPR S108^2.65A; HEK293, Fluo-4; mean ± S.E.M., n ≥ 3
T14 construct: expressed in transfected cells; host or cells: HEK293, transient transfection by electroporation
T14 sequence (Q96P65 whole entry S108A): as the sequence (Q96P65 whole entry) above, with S108A counted along it
Protocol: as §1, §2, §3

QRFPR mutants [14] = target: T15, QRFPR mutants (Homo sapiens, UniProt Q96P65, S126A); experiment: as above; settings: HEK293, QRFPR S126^3.33A; HEK293, Fluo-4; mean ± S.E.M., n ≥ 3
T15 construct: expressed in transfected cells; host or cells: HEK293, transient transfection by electroporation
T15 sequence (Q96P65 whole entry S126A): as the sequence (Q96P65 whole entry) above, with S126A counted along it
Protocol: as §1, §2, §3

QRFPR mutants [15] = target: T16, QRFPR mutants (Homo sapiens, UniProt Q96P65, T102A); experiment: as above; settings: HEK293, QRFPR T102^2.60A; HEK293, Fluo-4; mean ± S.E.M., n ≥ 3
T16 construct: expressed in transfected cells; host or cells: HEK293, transient transfection by electroporation
T16 sequence (Q96P65 whole entry T102A): as the sequence (Q96P65 whole entry) above, with T102A counted along it
Protocol: as §1, §2, §3

QRFPR mutants [16] = target: T17, QRFPR mutants (Homo sapiens, UniProt Q96P65, Y190A); experiment: as above; settings: HEK293, QRFPR Y190^ECL2A; HEK293, Fluo-4; mean ± S.E.M., n ≥ 3
T17 construct: expressed in transfected cells; host or cells: HEK293, transient transfection by electroporation
T17 sequence (Q96P65 whole entry Y190A): as the sequence (Q96P65 whole entry) above, with Y190A counted along it
Protocol: as §1, §2, §3

For ASGPLGTLAEELSSYSRRKGGFSFRF-NH2 [26RFa], the Emax (QRFPR (WT)) was 100 ± 1%, the Emax (QRFPR mutants [1]; HEK293, QRFPR Δ1-38, HEK293, Fluo-4, mean ± S.E.M., n ≥ 3) was 14.7 ± 1.5% and the “peptide-induced QRFPR activity” value (QRFPR mutants [1]; QRFPR Δ1–38 (entire N-terminus truncated)) was “abolished the peptide-induced QRFPR activity”. For the same substance, the Emax (QRFPR mutants [2]) was 53.2 ± 0.75%, the Emax (QRFPR mutants [3]) was 88.5 ± 1.2% and the Emax (QRFPR mutants [4]) was 48.4 ± 0.88%. For the same substance, the “effect of E^45.52 to alanine” value (QRFPR mutants [5]; 26RFa, QRFPR) was “remarkable decline of activity or potency”, the Emax (QRFPR mutants [5]; HEK293, QRFPR E203^45.52A, HEK293, Fluo-4, mean ± S.E.M., n ≥ 3) was 96.9 ± 0.64% and the Emax (QRFPR mutants [6]; HEK293, QRFPR F289^6.51L, HEK293, Fluo-4, mean ± S.E.M., n ≥ 3) was 112 ± 5.1%. For the same substance, the “effect of mutation on 26RFa activity” value (QRFPR mutants [6]; QRFPR F289^6.51 to leucine) was “did not impact the 26RFa activity”, the Emax (QRFPR mutants [7]) was 95.5 ± 1.6% and the Emax (QRFPR mutants [8]) was 109 ± 0.69%. The “effect of L^5.46 on peptide activity” value (QRFPR mutants [9]; 26RFa, QRFPR L^5.46 (Supplementary Fig. S3)) was “negligible effects”, the Emax (QRFPR mutants [9]; HEK293, QRFPR L222^5.46A, HEK293, Fluo-4, mean ± S.E.M., n ≥ 3) was 99 ± 1.3% and the Emax (QRFPR mutants [10]) was 96.7 ± 1.4%. It also gave an Emax (QRFPR mutants [11]) of 83.8 ± 3.1%, an Emax (QRFPR mutants [12]) of 71.4 ± 2.2% and an Emax (QRFPR mutants [13]) of 51.7 ± 0.73%. For the same substance, the Emax (QRFPR mutants [14]) was 92.3 ± 4.1%, the Emax (QRFPR mutants [15]) was 94 ± 1.4% and the Emax (QRFPR mutants [16]) was 23.6 ± 0.22%.
